Experimental data published in ChEMBL document CHEMBL3751837, “Synthesis of tetravalent LacNAc-glycoclusters as high-affinity cross-linker against Erythrina cristagalli agglutinin” (Bioorg Med Chem, 2016).
Calls of active or inactive are those of the source. The rule behind the calls is not given here.

How the values were obtained:
Erythrina crista-galli [1] = assay: Inhibition of Erythrina crista-galli agglutinin-mediated hemagglutination assessed as concentration of LacNAc unit after 40 mins in presence of rabbit erythrocytes; assay type: cell-based
Erythrina crista-galli [2] = assay: Binding affinity to Erythrina crista-galli agglutinin by isothermal titration calorimetry analysis relative to 3-TFAP-beta-LacNAc
[3] = Binding affinity to Erythrina crista-galli agglutinin by isothermal titration calorimetry analysis
Erythrina crista-galli [4] = assay: Binding affinity to Erythrina crista-galli agglutinin at 0.625 to 480 uM by quantitative precipitation assay
Erythrina crista-galli [5] = assay: Inhibition of Erythrina crista-galli agglutinin-mediated hemagglutination after 40 mins in presence of rabbit erythrocytes; assay type: cell-based
Erythrina crista-galli [6] = assay: Inhibition of Erythrina crista-galli agglutinin-mediated hemagglutination assessed as concentration of LacNAc unit after 40 mins in presence of rabbit erythrocytes relative to LacNAc; assay type: cell-based
Erythrina crista-galli [7] = assay: Binding affinity to Erythrina crista-galli agglutinin assessed as particle size by measuring DLS volume hydrodynamic diameter centered positions at 2.5 uM by dynamic light scattering analysis (reference value: 8.2 nanometer)
Erythrina crista-galli [8] = assay: Binding affinity to Erythrina crista-galli agglutinin at 0.625 to 480 uM by dynamic light scattering analysis
Erythrina crista-galli [9] = assay: Binding affinity to Erythrina crista-galli agglutinin assessed as particle size by measuring DLS volume hydrodynamic diameter centered positions at 5 uM by dynamic light scattering analysis (reference value: 8.2 nanometer)
Erythrina crista-galli [10] = assay: Binding affinity to Erythrina crista-galli agglutinin assessed as particle size by measuring DLS volume hydrodynamic diameter centered positions at 20 uM by dynamic light scattering analysis (reference value: 8.2 nanometer)
Erythrina crista-galli [11] = assay: Binding affinity to Erythrina crista-galli agglutinin assessed as particle size by measuring DLS volume hydrodynamic diameter centered positions at 10 uM by dynamic light scattering analysis (reference value: 8.2 nanometer)
Erythrina crista-galli [12] = assay: Binding affinity to Erythrina crista-galli agglutinin assessed as formation of large aggregate at 5 to 10 uM by dynamic light scattering analysis
Erythrina crista-galli [13] = assay: Binding affinity to Erythrina crista-galli agglutinin assessed as particle size by measuring DLS volume hydrodynamic diameter centered positions at 240 uM by dynamic light scattering analysis (reference value: 8.2 nanometer)

| Structure (SMILES) | MIC (Erythrina crista-galli [1]) [µM] | Ratio (Erythrina crista-galli [2]) | Kd [3] [µM] | Activity (Erythrina crista-galli [4]) | MIC (Erythrina crista-galli [5]) [µM] | Ratio (Erythrina crista-galli [6]) | Activity (Erythrina crista-galli [7]) [nm] | Activity (Erythrina crista-galli [8]) | Activity (Erythrina crista-galli [9]) [nm] | Activity (Erythrina crista-galli [10]) [nm] | Activity (Erythrina crista-galli [11]) [nm] | Activity (Erythrina crista-galli [12]) | Activity (Erythrina crista-galli [13]) [nm] |
| --- | --- | --- | --- | --- | --- | --- | --- | --- | --- | --- | --- | --- | --- |
| CC(=O)N[C@H]1[C@H](OCCCCCNC(=O)CCCCCNC(=O)CCCSSCCCC(=O)NCCCCCC(=O)NCCCCCO[C@@H]2O[C@H](CO)[C@@H](O[C@@H]3O[C@H](CO)[C@@H](O)[C@H](O)[C@H]3O)[C@H](O)[C@H]2NC(C)=O)O[C@H](CO)[C@@H](O[C@@H]2O[C@H](CO)[C@@H](O)[C@H](O)[C@H]2O)[C@@H]1O | 3 | 2.3 | 15.6 | 41% | 1.5 | 8 | – | – | – | – | – | – | – |
| CC(=O)N[C@H]1[C@H](OCCCNC(=O)C[C@H](NC(=O)CCCCC(=O)N[C@@H](CC(=O)NCCCO[C@@H]2O[C@H](CO)[C@@H](O[C@@H]3O[C@H](CO)[C@@H](O)[C@H](O)[C@H]3O)[C@H](O)[C@H]2NC(C)=O)C(=O)NCCCO[C@@H]2O[C@H](CO)[C@@H](O[C@@H]3O[C@H](CO)[C@@H](O)[C@H](O)[C@H]3O)[C@H](O)[C@H]2NC(C)=O)C(=O)NCCCO[C@@H]2O[C@H](CO)[C@@H](O[C@@H]3O[C@H](CO)[C@@H](O)[C@H](O)[C@H]3O)[C@H](O)[C@H]2NC(C)=O)O[C@H](CO)[C@@H](O[C@@H]2O[C@H](CO)[C@@H](O)[C@H](O)[C@H]2O)[C@@H]1O | 6 | 4.9 | 7.2 | 95% | 1.5 | 4 | – | – | – | – | – | – | – |
| CC(=O)N[C@H]1[C@H](OCCCNC(=O)C[C@H](NC(=O)CCCCCNC(=O)CCCCCCCCCCC(=O)NCCCCCC(=O)N[C@@H](CC(=O)NCCCO[C@@H]2O[C@H](CO)[C@@H](O[C@@H]3O[C@H](CO)[C@@H](O)[C@H](O)[C@H]3O)[C@H](O)[C@H]2NC(C)=O)C(=O)NCCCO[C@@H]2O[C@H](CO)[C@@H](O[C@@H]3O[C@H](CO)[C@@H](O)[C@H](O)[C@H]3O)[C@H](O)[C@H]2NC(C)=O)C(=O)NCCCO[C@@H]2O[C@H](CO)[C@@H](O[C@@H]3O[C@H](CO)[C@@H](O)[C@H](O)[C@H]3O)[C@H](O)[C@H]2NC(C)=O)O[C@H](CO)[C@@H](O[C@@H]2O[C@H](CO)[C@@H](O)[C@H](O)[C@H]2O)[C@@H]1O | 0.56 | 15.3 | 2.3 | 95% | 0.14 | 43 | 1880 | Active | 1750 | 2280 | – | – | – |
| CC(=O)N[C@H]1[C@H](OCCOCCNC(=O)CN(CCOCCOCCN(CC(=O)NCCOCCO[C@@H]2O[C@H](CO)[C@@H](O[C@@H]3O[C@H](CO)[C@@H](O)[C@H](O)[C@H]3O)[C@H](O)[C@H]2NC(C)=O)CC(=O)NCCOCCO[C@@H]2O[C@H](CO)[C@@H](O[C@@H]3O[C@H](CO)[C@@H](O)[C@H](O)[C@H]3O)[C@H](O)[C@H]2NC(C)=O)CC(=O)NCCOCCO[C@@H]2O[C@H](CO)[C@@H](O[C@@H]3O[C@H](CO)[C@@H](O)[C@H](O)[C@H]3O)[C@H](O)[C@H]2NC(C)=O)O[C@H](CO)[C@@H](O[C@@H]2O[C@H](CO)[C@@H](O)[C@H](O)[C@H]2O)[C@@H]1O | 12 | 4.9 | 7.2 | Active | 3 | 2 | – | – | – | – | – | – | – |
| CC(=O)N[C@H]1[C@H](OCCCNC(=O)C[C@H](NC(=O)CCCCCCCCC(=O)N[C@@H](CC(=O)NCCCO[C@@H]2O[C@H](CO)[C@@H](O[C@@H]3O[C@H](CO)[C@@H](O)[C@H](O)[C@H]3O)[C@H](O)[C@H]2NC(C)=O)C(=O)NCCCO[C@@H]2O[C@H](CO)[C@@H](O[C@@H]3O[C@H](CO)[C@@H](O)[C@H](O)[C@H]3O)[C@H](O)[C@H]2NC(C)=O)C(=O)NCCCO[C@@H]2O[C@H](CO)[C@@H](O[C@@H]3O[C@H](CO)[C@@H](O)[C@H](O)[C@H]3O)[C@H](O)[C@H]2NC(C)=O)O[C@H](CO)[C@@H](O[C@@H]2O[C@H](CO)[C@@H](O)[C@H](O)[C@H]2O)[C@@H]1O | 3 | 9 | 3.9 | 95% | 0.75 | 8 | – | – | – | – | – | – | – |
| CC(=O)N[C@H]1C(O)O[C@H](CO)[C@@H](O[C@@H]2O[C@H](CO)[C@@H](O)[C@H](O)[C@H]2O)[C@@H]1O (some centres not stated) | 24 | – | – | – | 24 | – | – | – | – | – | – | – | – |
| CC(=O)N[C@H]1[C@H](OCCCCCNC(=O)CCCSSCCCC(=O)NCCCCCO[C@@H]2O[C@H](CO)[C@@H](O[C@@H]3O[C@H](CO)[C@@H](O)[C@H](O)[C@H]3O)[C@H](O)[C@H]2NC(C)=O)O[C@H](CO)[C@@H](O[C@@H]2O[C@H](CO)[C@@H](O)[C@H](O)[C@H]2O)[C@@H]1O | 3 | 2 | 17.5 | 20% | 1.5 | 8 | – | – | – | – | – | – | – |
| CC(=O)N[C@H]1[C@H](OCCCNC(=O)C(F)(F)F)O[C@H](CO)[C@@H](O[C@@H]2O[C@H](CO)[C@@H](O)[C@H](O)[C@H]2O)[C@@H]1O | – | – | 35.2 | inactive | – | – | – | – | – | – | – | – | – |
| CC(=O)N[C@H]1[C@H](OCCCNC(=O)C[C@H](NC(=O)CCCCCCCCCCCCCCCCC(=O)N[C@@H](CC(=O)NCCCO[C@@H]2O[C@H](CO)[C@@H](O[C@@H]3O[C@H](CO)[C@@H](O)[C@H](O)[C@H]3O)[C@H](O)[C@H]2NC(C)=O)C(=O)NCCCO[C@@H]2O[C@H](CO)[C@@H](O[C@@H]3O[C@H](CO)[C@@H](O)[C@H](O)[C@H]3O)[C@H](O)[C@H]2NC(C)=O)C(=O)NCCCO[C@@H]2O[C@H](CO)[C@@H](O[C@@H]3O[C@H](CO)[C@@H](O)[C@H](O)[C@H]3O)[C@H](O)[C@H]2NC(C)=O)O[C@H](CO)[C@@H](O[C@@H]2O[C@H](CO)[C@@H](O)[C@H](O)[C@H]2O)[C@@H]1O | 0.76 | 14.1 | 2.5 | 95% | 0.19 | 32 | – | Active | 1110 | 2030 | 1510 | Active | 788 |
| CC(=O)N[C@H]1[C@H](OCCOCCNC(=O)CCCCCNC(=O)CN(CCOCCOCCN(CC(=O)NCCCCCC(=O)NCCOCCO[C@@H]2O[C@H](CO)[C@@H](O[C@@H]3O[C@H](CO)[C@@H](O)[C@H](O)[C@H]3O)[C@H](O)[C@H]2NC(C)=O)CC(=O)NCCCCCC(=O)NCCOCCO[C@@H]2O[C@H](CO)[C@@H](O[C@@H]3O[C@H](CO)[C@@H](O)[C@H](O)[C@H]3O)[C@H](O)[C@H]2NC(C)=O)CC(=O)NCCCCCC(=O)NCCOCCO[C@@H]2O[C@H](CO)[C@@H](O[C@@H]3O[C@H](CO)[C@@H](O)[C@H](O)[C@H]3O)[C@H](O)[C@H]2NC(C)=O)O[C@H](CO)[C@@H](O[C@@H]2O[C@H](CO)[C@@H](O)[C@H](O)[C@H]2O)[C@@H]1O | 6 | 5.9 | 6 | Active | 1.5 | 4 | – | – | – | – | – | – | – |
